This note sets out measurements from ChEMBL document CHEMBL2375267, “A comprehensive review on synthesis and designing aspects of coumarin derivatives as monoamine oxidase inhibitors for depression and Alzheimer's disease” (Bioorg Med Chem, 2013).

SMILES strings stand for the structures.

In assay [1] the target is T1, Amine oxidase [flavin-containing] B (Mus musculus, UniProt Q8BW75).
T1 sequence (Q8BW75 whole entry): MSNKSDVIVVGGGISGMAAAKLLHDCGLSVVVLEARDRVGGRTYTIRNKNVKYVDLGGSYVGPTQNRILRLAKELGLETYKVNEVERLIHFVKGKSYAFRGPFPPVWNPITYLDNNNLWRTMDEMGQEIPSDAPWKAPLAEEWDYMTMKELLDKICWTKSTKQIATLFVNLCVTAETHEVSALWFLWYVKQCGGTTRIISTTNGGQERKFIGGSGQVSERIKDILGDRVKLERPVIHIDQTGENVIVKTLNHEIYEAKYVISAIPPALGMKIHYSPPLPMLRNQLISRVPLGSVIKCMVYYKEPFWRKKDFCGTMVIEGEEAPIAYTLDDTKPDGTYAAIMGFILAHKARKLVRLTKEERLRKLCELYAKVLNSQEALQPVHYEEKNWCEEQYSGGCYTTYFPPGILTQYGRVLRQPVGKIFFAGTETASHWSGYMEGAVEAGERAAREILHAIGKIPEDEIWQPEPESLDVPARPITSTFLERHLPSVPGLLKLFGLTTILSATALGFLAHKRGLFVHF
Briefly: Inhibition of mouse brain MAO-B.

Assay [2] addresses T2, Amine oxidase [flavin-containing] A (Mus musculus, UniProt Q64133).
T2 sequence (Q64133 whole entry): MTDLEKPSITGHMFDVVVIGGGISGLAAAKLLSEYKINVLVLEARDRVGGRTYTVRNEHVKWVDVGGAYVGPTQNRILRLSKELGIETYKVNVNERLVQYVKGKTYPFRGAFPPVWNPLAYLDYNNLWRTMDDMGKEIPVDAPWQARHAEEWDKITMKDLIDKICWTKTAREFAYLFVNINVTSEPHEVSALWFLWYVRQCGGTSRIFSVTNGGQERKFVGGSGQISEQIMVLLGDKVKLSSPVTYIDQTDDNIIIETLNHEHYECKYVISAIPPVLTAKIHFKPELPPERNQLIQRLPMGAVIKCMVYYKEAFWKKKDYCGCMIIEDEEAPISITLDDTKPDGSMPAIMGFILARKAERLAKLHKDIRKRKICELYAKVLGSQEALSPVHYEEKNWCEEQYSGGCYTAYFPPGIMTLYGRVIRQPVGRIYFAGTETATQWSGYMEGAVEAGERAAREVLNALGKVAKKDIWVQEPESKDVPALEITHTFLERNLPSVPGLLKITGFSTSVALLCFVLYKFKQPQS
Briefly: Inhibition of mouse brain MAO-A.

Assay [3] can be described thus: Inhibition of mouse brain monoamine oxidase.
In assay [4] the target is T3, Amine oxidase [flavin-containing] B (Homo sapiens, UniProt P27338).
T3 sequence (P27338 whole entry): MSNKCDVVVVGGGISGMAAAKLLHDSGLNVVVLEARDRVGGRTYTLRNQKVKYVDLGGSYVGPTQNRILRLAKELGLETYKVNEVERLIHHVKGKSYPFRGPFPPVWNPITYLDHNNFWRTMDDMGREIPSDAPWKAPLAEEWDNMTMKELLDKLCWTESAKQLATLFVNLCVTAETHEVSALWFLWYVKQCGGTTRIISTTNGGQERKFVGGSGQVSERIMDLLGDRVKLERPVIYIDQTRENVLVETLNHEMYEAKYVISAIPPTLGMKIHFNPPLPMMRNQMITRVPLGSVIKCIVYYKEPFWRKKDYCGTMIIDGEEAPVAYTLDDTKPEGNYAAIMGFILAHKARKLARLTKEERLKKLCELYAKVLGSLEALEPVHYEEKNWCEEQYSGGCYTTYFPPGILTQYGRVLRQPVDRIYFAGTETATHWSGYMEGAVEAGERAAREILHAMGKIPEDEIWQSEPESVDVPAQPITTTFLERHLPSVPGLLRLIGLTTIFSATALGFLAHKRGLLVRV
Briefly: Inhibition of MAO-B (unknown origin).

For assay [5], the species on record is Homo sapiens. Briefly: Selectivity index, ratio of pIC50 for MAO-B (unknown origin) to pIC50 for MAO-A (unknown origin).
The species named for assay [6] is Homo sapiens. Kind of assay: Selectivity ratio for MAO-A (unknown origin) over MAO-B (unknown origin).
For assay [7], the target named is T4, Amine oxidase [flavin-containing] A (Homo sapiens, UniProt P21397).
T4 sequence (P21397 whole entry): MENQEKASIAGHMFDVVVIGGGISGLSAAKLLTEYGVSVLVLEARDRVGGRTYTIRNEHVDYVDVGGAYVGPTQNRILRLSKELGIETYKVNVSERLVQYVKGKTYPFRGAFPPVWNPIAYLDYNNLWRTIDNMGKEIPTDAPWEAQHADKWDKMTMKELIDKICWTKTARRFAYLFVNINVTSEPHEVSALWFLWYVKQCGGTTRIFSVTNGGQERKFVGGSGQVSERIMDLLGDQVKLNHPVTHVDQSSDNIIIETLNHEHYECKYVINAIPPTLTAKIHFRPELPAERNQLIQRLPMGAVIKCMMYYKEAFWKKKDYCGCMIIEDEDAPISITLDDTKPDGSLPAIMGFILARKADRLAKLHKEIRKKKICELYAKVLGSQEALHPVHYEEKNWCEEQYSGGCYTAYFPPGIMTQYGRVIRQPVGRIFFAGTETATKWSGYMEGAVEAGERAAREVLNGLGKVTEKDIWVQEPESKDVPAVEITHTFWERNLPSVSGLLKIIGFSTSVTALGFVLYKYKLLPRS
Briefly: Inhibition of MAO-A (unknown origin).

A short description of assay [8]: Inhibition of mouse brain monoamine oxidase using kynuramine as substrate by fluorometric analysis.

`C=C(C)[C@H](O)CC/C(C)=C/COc1ccc2ccc(=O)oc2c1`: the concentration for half-maximal inhibition (IC50) in assay [1] is 0.5 µM; in assay [2], 1300 nM; in assay [3], 0.7 µM.

`O=C(Cl)c1cc2cc(Cl)ccc2oc1=O` gave a half-inhibitory concentration (IC50) in assay [4] of 0.01 µM. This counts as double-digit nanomolar. In turn, `C/C=C(/C)C(=O)O[C@H]1[C@@H](OC(C)=O)c2c(ccc3ccc(=O)oc23)OC1(C)C` gave a half-inhibitory concentration (IC50) in assay [3] of 27.4 µM. Regarding `CC(C)=CCC/C(C)=C/COc1ccc2ccc(=O)oc2c1`, the figures for the concentration for half-maximal inhibition (IC50) in assay [1], in assay [2] and in assay [3] were 0.6 µM, 0.0346 nM and 1.7 µM, respectively.

Take `Cc1ccc2oc(=O)c(C(=O)O)cc2c1`: in the assay listed under Homo sapiens [5], the Ratio pIC50 came to 2.8. The same compound had a half-maximal inhibitory concentration (IC50) in assay [4] of 0.0191 µM. Regarding `CC1(C)OC(/C=C/COc2ccc3ccc(=O)oc3c2)=CC1=O`, in the assay filed under Homo sapiens [6], the Selectivity ratio came out at 850. With `COc1c2ccoc2cc2oc(=O)ccc12` [BERGAPTEN], the half-inhibitory concentration (IC50) in assay [7] and in assay [3] was 13.8 µM each time.

Regarding `O=C(O)c1cc2ccccc2oc1=O` [COUMARIN-3-CARBOXYLIC ACID], the Ratio pIC50 in the assay filed under Homo sapiens [5] was 2.94. Moreover, in assay [4], the concentration for half-maximal inhibition (IC50) is 0.0174 µM. Turning to `O=c1ccc2cc(O)c(O)cc2o1` [ESCULETIN], in assay [8], the concentration for half-maximal inhibition (IC50) came to 31.1 µM. For the compound `COc1cc2oc(=O)ccc2cc1O` [ISOSCOPOLETIN], half-maximal inhibition in assay [8] (IC50) required 32.2 µM.

In the case of `COc1c(OCC=C(C)C)ccc2ccc(=O)oc12` [LACINARTIN], the IC50 came out at 28.6 µM in assay [1], 5700 nM in assay [2] and 9.2 µM in assay [3].

As to `O=c1ccc2cc3ccoc3cc2o1` [PSORALEN], the values for the IC50 in assay [7] and in assay [3] were 21.3 µM and 35.8 µM, respectively.

In assay [8], `COc1cc2ccc(=O)oc2cc1O` [SCOPOLETIN] returned an IC50 of 45 µM.

As a reminder, the IC50 is the midpoint of a concentration-inhibition curve. A low value points to inhibition by little substance.
